Assay results as given in PubChem BioAssay AID330 (DTP/NCI, 2004).
Where “and” joins values, the source holds several entries; their conditions need not be identical. Equal entries are not always repeated. Inconclusive results and toxic doses are left out. The calls were made as follows: active = survival T/C of 150% or more; inactive = T/C below 125% in these data.

Test system: P388 leukemia ip, CD2F1 mice, survival T/C
Test: NCI In Vivo Anticancer Drug Screen. Data for tumor model P388 Leukemia (intraperitoneal) in CD2F1 (CDF1) mice
Settings: endpoint: median survival time, higher = longer survival
Procedure, shortened: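 Mice carrying the transplanted tumor received test compound or vehicle. Survival was recorded in each group, and the value is the treated-group measurement divided by that of the vehicle-treated control group.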

[1] = dose: 50.0 mg/kg/injection, schedule: Q01DX009 (ip), vehicle: Klucel (hydroxypropylcellulose) (HPC)
[2] = dose: 100.0 mg/kg/injection, schedule: Q01DX009 (ip), vehicle: Klucel (hydroxypropylcellulose) (HPC)
[3] = dose: 200.0 mg/kg/injection, schedule: Q01DX009 (ip), vehicle: Klucel (hydroxypropylcellulose) (HPC)
[4] = dose: 25.0 mg/kg/injection, schedule: Q04DX003 (ip), vehicle: saline with Tween-80
[5] = dose: 50.0 mg/kg/injection, schedule: Q04DX003 (ip), vehicle: saline with Tween-80
[6] = dose: 50.0 mg/kg/injection, schedule: Q01DX009 (ip), vehicle: saline
[7] = dose: 100.0 mg/kg/injection, schedule: Q01DX009 (ip), vehicle: saline
[8] = dose: 50.0 mg/kg/injection, schedule: Q01DX009 (ip), vehicle: saline with Tween-80
[9] = dose: 100.0 mg/kg/injection, schedule: Q01DX009 (ip), vehicle: saline with Tween-80
[10] = dose: 100.0 mg/kg/injection, schedule: Q04DX003 (ip), vehicle: saline with Tween-80
[11] = dose: 200.0 mg/kg/injection, schedule: Q01DX009 (ip), vehicle: saline with Tween-80
[12] = dose: 200.0 mg/kg/injection, schedule: Q04DX003 (ip), vehicle: saline with Tween-80
[13] = dose: 400.0 mg/kg/injection, schedule: Q01DX009 (ip), vehicle: saline with Tween-80
[14] = dose: 400.0 mg/kg/injection, schedule: Q04DX003 (ip), vehicle: saline with Tween-80

Measured: T/C

CCc1cccc(C2(C)C(=O)c3ccccc3C2=O)c1
inactive: dose: 100.0 mg/kg/injection, schedule: Q04DX002 (ip), vehicle: saline 105 % of control | dose: 200.0 mg/kg/injection, schedule: Q04DX002 (ip), vehicle: saline 100 % of control | dose: 400.0 mg/kg/injection, schedule: Q04DX002 (ip), vehicle: saline 102 % of control

NC(=O)CS(=O)CC(N)C(=O)O (stereo not given)
inactive: dose: 50.0 mg/kg/injection, schedule: Q01DX005 (ip), vehicle: saline 100 % of control | dose: 100.0 mg/kg/injection, schedule: Q01DX005 (ip), vehicle: saline 105 % of control | dose: 200.0 mg/kg/injection, schedule: Q01DX005 (ip), vehicle: saline 95 % of control

Cc1c(NC(=O)C(=O)O)ccc2c(=O)cc(C(=O)O)[nH]c12
inactive: [1] 102 % of control and 118 % of control | [2] 109 % of control and 117 % of control | [3] 111 % of control and 124 % of control

CC1(C)N=C(N)N=C(N)N1c1cccc(CC(=O)Nc2ccccc2)c1
inactive: dose: 12.5 mg/kg/injection, schedule: Q01DX009 (ip), vehicle: saline sonified 95 % of control | dose: 12.5 mg/kg/injection, schedule: Q04DX003 (ip), vehicle: saline with Tween-80 109 % of control | dose: 25.0 mg/kg/injection, schedule: Q01DX009 (ip), vehicle: saline sonified 95 % of control | [4] 104 % of control | dose: 50.0 mg/kg/injection, schedule: Q01DX009 (ip), vehicle: saline sonified 90 % of control | [5] 109 % of control

CCCCCCCC(=O)Nc1nnc(SCCCCCCSc2nnc(NC(=O)CCCCCCC)s2)s1
inactive: dose: 50.0 mg/kg/injection, schedule: Q01DX005 (ip), vehicle: Klucel + Tween-80 90 % of control | dose: 100.0 mg/kg/injection, schedule: Q01DX005 (ip), vehicle: Klucel + Tween-80 90 % of control | dose: 200.0 mg/kg/injection, schedule: Q01DX005 (ip), vehicle: Klucel + Tween-80 95 % of control

CC1(CC(C)(C)c2ccccc2)OCCO1
inactive: dose: 25.0 mg/kg/injection, schedule: Q01DX009 (ip), vehicle: water 96 % of control | dose: 50.0 mg/kg/injection, schedule: Q01DX009 (ip), vehicle: water 91 % of control | dose: 100.0 mg/kg/injection, schedule: Q01DX009 (ip), vehicle: water 102 % of control | dose: 200.0 mg/kg/injection, schedule: Q01DX009 (ip), vehicle: water 93 % of control | dose: 400.0 mg/kg/injection, schedule: Q01DX009 (ip), vehicle: water 104 % of control

C/[N+]([O-])=C/c1ncc([N+](=O)[O-])n1CCO
inactive: [6] 102 % of control | [7] 107 % of control | dose: 200.0 mg/kg/injection, schedule: Q01DX009 (ip), vehicle: saline 98 % of control

CCOC(=O)/N=[N+](\[O-])c1cccc(Br)c1
inactive: dose: 100.0 mg/kg/injection, schedule: Q01DX001 (ip), vehicle: Klucel (hydroxypropylcellulose) (HPC) 101 % of control

CCC1C(=O)OCCOCCOCCOCCOC1=O
inactive: dose: 100.0 mg/kg/injection, schedule: Q04DX003 (ip), vehicle: Klucel (hydroxypropylcellulose) (HPC) 106 % of control | dose: 200.0 mg/kg/injection, schedule: Q04DX003 (ip), vehicle: Klucel (hydroxypropylcellulose) (HPC) 100 % of control | dose: 400.0 mg/kg/injection, schedule: Q04DX003 (ip), vehicle: Klucel (hydroxypropylcellulose) (HPC) 107 % of control

CCOC(=O)C(SC(S(=O)(=O)c1ccccc1)S(=O)(=O)c1ccccc1)C(=O)OCC
inactive: [1] 98 % of control | [2] 90 % of control | [3] 90 % of control

CC1CCCN2C(=O)CN(Cc3ccccc3)CC(=O)N12 (stereo not given)
inactive: dose: 50.0 mg/kg/injection, schedule: Q01DX005 (ip), vehicle: saline with Tween-80 100 % of control | dose: 100.0 mg/kg/injection, schedule: Q01DX005 (ip), vehicle: saline with Tween-80 100 % of control | dose: 200.0 mg/kg/injection, schedule: Q01DX005 (ip), vehicle: saline with Tween-80 100 % of control

S=C(NC1CCCCC1)N1CCC(CCCC2CCN(C(=S)NC3CCCCC3)CC2)CC1
inactive: [4] 90 % of control | [8] 90 % of control | [5] 90 % of control | [9] 90 % of control and 95 % of control | [10] 90 % of control | [11] 90 % of control | [12] 90 % of control | [13] 95 % of control | [14] 90 % of control

COC(OC)C(C)(C)NC(C)(C)C
inactive: [6] 104 % of control | [7] 100 % of control

CCOC(=O)NCCCBr
inactive: [8] 105 % of control | [9] 99 % of control | [11] 107 % of control

C=C1C(=O)OCC1C(=O)OCC (stereo not given)
inactive: [10] 103 % of control | [12] 107 % of control | [14] 98 % of control

Cc1ccc(C)c(Nc2ccccc2[N+](=O)[O-])c1
inactive: [8] 103 % of control | [9] 108 % of control | [11] 100 % of control | [13] 112 % of control

O=C(c1nc2ccccc2[nH]1)N1CCN(c2ccccc2)CC1
inactive: dose: 50.0 mg/kg/injection, schedule: Q01DX005 (ip), vehicle: Klucel (hydroxypropylcellulose) (HPC) 104 % of control | dose: 100.0 mg/kg/injection, schedule: Q01DX005 (ip), vehicle: Klucel (hydroxypropylcellulose) (HPC) 107 % of control and 95 % of control | dose: 200.0 mg/kg/injection, schedule: Q01DX005 (ip), vehicle: Klucel (hydroxypropylcellulose) (HPC) 101 % of control and 110 % of control
